We go through three compounds from patent US20150025154A1, “OPHTHALMIC COMPOSITION” (ROHTO PHARMACEUTICAL CO., LTD., priority 2012, published 2015).

What all share (type): physicochemical
A short description of data set [1]: Test for residual ratio of GGA No. 1: storage of eye drops in glass or PET containers. Conditions: Tables 1 to 3, glass and PET containers. On the procedure: (§1) In accordance with the measurement conditions for the elution test described in PFSB/ELD Notification No. 0412007 “teprenone 100 mg/g fine granule”, the GGA concentration of each eye drop was determined from the area value of the 5Z-mono-cis form (Ac) and the area value of the all-trans form (At) using Japanese pharmacopoeia “teprenone reference standard (all-trans form:5Z-mono-cis form=about 6:4 (weight ratio), Pharmaceutical and Medical Device Regulatory Science Society of Japan)” or teprenone (Wako Pure Chemical Industries) as a reference standard under the HPLC measurement conditions described below. For the eye drop containing teprenone (all-trans form:5Z-mono-cis form=3:2 (weight ratio)), the GGA content was calculated by summing the amounts of the all-trans form and the 5Z-mono-cis form. […]
A polyethylene terephthalate container (8 mL) (the container for Rohto Dryaid EX, Rohto Pharmaceutical) was completely filled with each of the eye drops in an aseptic manner. […] The teprenone or all-trans form content (g/100 mL) in each of the eye drops was quantified under the HPLC conditions described above immediately after the production and after being left to stand for a predetermined period of time, and the residual ratio (%) was calculated. […]

Data set [2] is described as follows: Test for residual ratio of GGA No. 2: eye drops in LDPE or HDPE eye drop containers, 40° C., 75% RH. Conditions: Table 6, LDPE and HDPE eye drop containers. The method, then: To a surfactant (POE castor oil and POE hydrogenated castor oil 60) warmed to 65° C., the all-trans form and optionally ascorbyl tetraisopalmitate were added and dissolved under stirring in a hot water bath at 65° C. for 2 minutes. Water at 65° C. was added and each buffer was added under stirring to give a homogeneous solution. The pH and osmotic pressure were adjusted with hydrochloric acid or sodium hydroxide.
Ten mL of each of the thus obtained eye drops was poured into a 13 mL eye drop container (material: low density polyethylene or high density polyethylene; shape: the same as that of the container for Namida Rohto Dry Eye (trade name) (Rohto Pharmaceutical)) with a glass volumetric pipette and the container was sealed.
For these eye drops, the stability test was performed by leaving them to stand in the upright position at 40° C., 75% RH for 2 hours, 8 hours, and 24 hours. The all-trans form content (g/100 mL) in each of the eye drops was quantified by HPLC immediately after the production and after being left to stand for a predetermined period of time, and the residual ratio (%) was calculated.

The nature of data set [3]: Residual ratio of GGA in eye drops held in various plastic or glass containers, 40° C., 75% RH, 2 hours. Conditions: Table 4, various container materials. On the procedure: as §1
Five mL of each of the eye drops was poured into various plastic or glass containers (volume: 10 to 15 mL) with a glass volumetric pipette and the containers were sealed. […] The all-trans form content (g/100 mL) in each of the eye drops was quantified under the HPLC conditions described above immediately after the production and after being left to stand for a predetermined period of time, and the residual ratio (%) was calculated.

With `Cc1cc(C(C)(C)C)c(O)c(C(C)(C)C)c1` [BHT, butylhydroxytoluene], in data set [1], the “Effect of added fat-soluble antioxidant on loss of the GGA content” value was “greatly reduced the loss of the GGA content”.

Consider `CCCCCCCCC(CCCCCC)C(=O)OC[C@H](OC(=O)C(CCCCCC)CCCCCCCC)[C@H]1OC(=O)C(OC(=O)C(CCCCCC)CCCCCCCC)=C1OC(=O)C(CCCCCC)CCCCCCCC` (stereo partly drawn) [ascorbyl tetraisopalmitate], for which the “Effect of added fat-soluble antioxidant on adsorption of GGA to the container wall” value in data set [2] was “reduced adsorption of GGA to the wall of the containers in a dose-dependent manner”.

On to `CCCCCCCCCCCCCCCC(=O)OC/C=C(C)/C=C/C=C(C)/C=C/C1=C(C)CCCC1(C)C` [retinol palmitate], for which the “Effect of added fat-soluble antioxidant on loss of the GGA content” value in data set [3] is listed as “greatly reduced the loss of the GGA content”.
